In PMC9102431, “Natural Compound Shikonin Is a Novel PAK1 Inhibitor and Enhances Efficacy of Chemotherapy against Pancreatic Cancer Cells” (Molecules, 2022):

Target: PAK1 (Homo sapiens, UniProt Q13153)
Assay: ADP-Glo kinase assay with human recombinant PAK1 (also labchip-based screen)
Type: biochemical

Sequence of PAK1 (Q13153 2-545): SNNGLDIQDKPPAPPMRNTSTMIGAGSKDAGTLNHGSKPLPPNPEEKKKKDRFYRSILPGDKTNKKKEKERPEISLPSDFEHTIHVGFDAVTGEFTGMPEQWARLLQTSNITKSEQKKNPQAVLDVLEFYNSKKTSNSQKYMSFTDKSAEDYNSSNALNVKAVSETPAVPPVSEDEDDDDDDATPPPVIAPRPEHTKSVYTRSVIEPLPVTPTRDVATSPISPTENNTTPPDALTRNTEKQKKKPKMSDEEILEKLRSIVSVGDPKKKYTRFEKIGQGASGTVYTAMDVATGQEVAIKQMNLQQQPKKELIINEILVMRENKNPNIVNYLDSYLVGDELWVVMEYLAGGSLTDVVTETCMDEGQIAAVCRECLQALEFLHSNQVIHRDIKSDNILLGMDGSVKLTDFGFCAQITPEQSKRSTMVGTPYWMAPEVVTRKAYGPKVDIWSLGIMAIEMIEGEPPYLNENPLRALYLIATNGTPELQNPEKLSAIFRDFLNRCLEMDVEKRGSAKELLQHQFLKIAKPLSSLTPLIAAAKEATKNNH

CC(C)=CC[C@@H](O)C1=CC(=O)c2c(O)ccc(O)c2C1=O [shikonin]
IC50: 7.252 ± 0.054 µM
